Results from ChEMBL document CHEMBL1772953, “Lupinacidin C, an inhibitor of tumor cell invasion from Micromonospora lupini” (J Nat Prod, 2011).

What was measured:
[1] = Antiinvasive activity against mouse 26-L5 cells after 6 to 8 hrs using hematoxylin/eosin dye by Matrigel assay; assay type: functional, cell-based
[2] = Cytotoxicity against mouse 26-L5 cells at <0.3 ug/ml after 24 hrs; assay type: cell-based

## CCCCc1c(O)c(C)c(O)c2c1C(=O)c1c(O)cccc1C2=O [LUPINACIDIN B]
[1]
  IC50: 920 nM

## CC[C@H](C)CCc1c(O)c(C)c(O)c2c1C(=O)c1c(O)cccc1C2=O [LUPINACIDIN C]
[1]
  IC50: 540 nM
[2]
  Activity: Non-toxic

## Cc1c(O)c(CCC(C)C)c2c(c1O)C(=O)c1cccc(O)c1C2=O [LUPINACIDIN A]
[1]
  IC50: 210 nM
